# Test results: article PMC9046087, “Structural basis of tethered agonism of the adhesion GPCRs ADGRD1 and ADGRF1” (Nature, 2022)
# Numbering of substitutions follows the chain as printed. Ends that are not written are not given here.
# Assays:
# [1] = molecular target: T1, ADGRF1 (Homo sapiens, UniProt Q5T601); assay: BRET assay using TRUPATH biosensors, Gs activation of ADGRF1; type: cell-based; conditions: Gs, ADGRF1 WT, n = 7
# T1 construct: Flag (N); expressed in transfected cells; host or cells: HEK293F
# T1 sequence (Q5T601 20-910): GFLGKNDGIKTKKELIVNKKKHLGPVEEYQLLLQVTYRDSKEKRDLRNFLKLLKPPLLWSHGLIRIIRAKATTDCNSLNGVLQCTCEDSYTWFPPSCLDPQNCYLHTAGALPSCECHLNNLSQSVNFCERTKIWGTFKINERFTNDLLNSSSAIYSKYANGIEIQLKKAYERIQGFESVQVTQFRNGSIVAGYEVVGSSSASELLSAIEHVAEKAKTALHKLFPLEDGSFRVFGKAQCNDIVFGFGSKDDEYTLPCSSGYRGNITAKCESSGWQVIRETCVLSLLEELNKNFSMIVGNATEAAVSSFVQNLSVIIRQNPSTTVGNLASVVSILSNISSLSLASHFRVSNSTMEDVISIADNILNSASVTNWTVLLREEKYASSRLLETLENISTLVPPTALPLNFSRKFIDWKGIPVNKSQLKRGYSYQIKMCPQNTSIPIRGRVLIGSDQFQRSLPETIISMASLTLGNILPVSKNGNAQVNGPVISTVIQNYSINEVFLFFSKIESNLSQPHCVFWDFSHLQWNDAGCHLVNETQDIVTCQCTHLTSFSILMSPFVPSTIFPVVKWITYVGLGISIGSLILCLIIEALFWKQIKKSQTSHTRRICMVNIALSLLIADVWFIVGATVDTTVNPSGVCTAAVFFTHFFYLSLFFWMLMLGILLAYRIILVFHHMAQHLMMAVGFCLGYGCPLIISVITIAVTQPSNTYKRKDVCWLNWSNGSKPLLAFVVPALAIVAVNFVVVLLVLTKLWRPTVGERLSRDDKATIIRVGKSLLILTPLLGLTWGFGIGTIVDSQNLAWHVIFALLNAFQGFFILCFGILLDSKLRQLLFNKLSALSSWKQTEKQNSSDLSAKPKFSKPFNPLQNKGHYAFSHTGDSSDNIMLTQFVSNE
# Protocol: (§1) To study the synthetic stalk peptide-induced G protein activation of ADGRD1 and ADGRF1, a BRET assay using TRUPATH biosensors was conducted to measure the proximal interaction between RLuc8 fused to the Gα subunit and GFP2 fused to the Gγ subunit. The TRUPATH suite of biosensors was obtained from Addgene (Addgene kit no. 1000000163) as a gift from B. Roth, including GαsS-RLuc8, Gαi1-RLuc8, Gβ3 and Gγ9-GFP2 as previously described.
# (§2) The wild-type or mutant ADGRD1 and ADGRF1 were transiently co-transfected with plasmids encoding Gα-RLuc8 (GαsS-RLuc8 for Gs activation assay; Gαi1-RLuc8 for Gi activation assay), Gβ3 and Gγ9-GFP2 at a ratio of 2:1:1:1 (receptor plasmid, 800 ng; G protein subunit plasmids, 400 ng for each) in 2 ml HEK293F cells at a density of 1.2 × 10^6 cells per ml. Cell cultivation and receptor surface expression measurement were performed as described above. The cells were plated into 96-well white plates (40,000 cells per well) in 60 μl of assay buffer and incubated at 37 °C for 30 min. Then 10 μl of freshly prepared 50 μM coelenterazine 400a (Nanolight Technologies) was added. […] The cells were stimulated with 30 μl of synthetic stalk peptide at different concentrations and the BRET signals were monitored continuously five times. The last measurements were used in data analysis. The BRET ratios were calculated as the ratio of the GFP2 emission to RLuc8 emission.
# [2] = molecular target: T2, ADGRF1 (Homo sapiens, UniProt Q5T601, L769A); assay: as above; type: cell-based
# T2 construct: Flag (N); expressed in transfected cells; host or cells: HEK293F
# T2 sequence (Q5T601 20-910 L769A): T1 sequence (Q5T601 20-910) with L750A
# Protocol: as §1, §2
# [3] = read-out: pEC50 (mean ± s.e.m.) (converted)
sequence,measurement,setting,value
TSFSILMSPFVP [pF1],Emax (mean ± s.e.m.),[1],100 ± 9 % of WT
same,EC50,[1]; [3],35.5 nM
same,Emax (mean ± s.e.m.),"[2]; Gs, ADGRF1 L769^5.61bA, n = 3",73 ± 11 % of WT
same,EC50,[2]; [3],151 nM
